Source: publication PMC12736150 (Pharmaceuticals, 2025)
Like-named read-outs stand apart in the source and are kept apart here.

Legend:
[1] = tested on: MPXV strain MOH-NRC-0002/2022, clade II lineage A.2.1
in vitro = settings: African green monkey
[2] = tested on: MPXV strain MOH-NRC-0002/2022, clade II lineage A.2.1; assay: in vitro; settings: African green monkey, SI (selectivity safety index = CC50/IC50)
[3] = tested on: MPXV strain MOH-NRC-0002/2022, clade II lineage A.2.1; assay: microbe, parasite or virus in culture; settings: Monkeypox virus
[4] = tested on: Zr-599 and Liberia strains of MPXV; settings: cited from earlier work
[5] = tested on: MPXV lineage responsible for the 2022 outbreak; settings: in vivo; cited from earlier work
[6] = tested on: clade I or clade II MPXV infection; settings: human, in vivo; cited from earlier work

Row | Compound | CC50 (in vitro) | selectivity ratio [2] | IC50 ([3]; Vero C1008, 72 h) | other results
1 | C[C@@H]1CCO[C@H]2Cn3cc(C(=O)NCc4ccc(F)cc4F)c(=O)c(O)c3C(=O)N12 [Dolutegravir] | 160 µM | 7.82 | 20.5 µM | antiviral activity against MPXV (in words) [1]: moderate antiviral activity
2 | Cc1ccnc2c1NC(=O)c1cccnc1N2C1CC1 [Nevirapine] | 277 µM | 2.61 | 106 µM | –
3 | Nc1ccn([C@@H]2CS[C@H](CO)O2)c(=O)n1 [Lamivudine] | 410 µM | – | – | –
4 | CC(C)C(=O)OC[C@H]1O[C@@H](n2ccc(NO)nc2=O)[C@H](O)[C@@H]1O [Molnupiravir] | 111 µM | – | 5.7 µM | IC50 [1]: 5.73 µM; antiviral activity against MPXV (in words) [1]: moderate anti-Mpox activity; IC50 [4]: ~5.2 µM
5 | CCC(CC)COC(=O)[C@H](C)N[P@](=O)(OC[C@H]1O[C@@](C#N)(c2ccc3c(N)ncnn23)[C@H](O)[C@@H]1O)Oc1ccccc1 [Remdesivir] | 503 µM | – | 10 µM | –
6 | C=C1[C@H](CO)[C@@H](O)C[C@@H]1n1cnc2c(=O)[nH]c(N)nc21 [Entecavir] | 336 µM | 12 | 28.1 µM | antiviral activity against MPXV (in words) [1]: moderate anti-Mpox activity
7 | CC(C)OC(=O)[C@H](C)N[P@](=O)(OC[C@H]1O[C@@H](n2ccc(=O)[nH]c2=O)[C@](C)(F)[C@@H]1O)Oc1ccccc1 [Sofosbuvir] | 286 µM | 0.61 | 470 µM | –
8 | CC(C)[C@H](N)C(=O)OCC(CO)OCn1cnc2c(=O)nc(N)[nH]c21 (stereo partly shown) [Valganciclovir] | 494 µM | 5.36 | 92 µM | –
9 | CC(C)[C@H](N)C(=O)OCCOCn1cnc2c(=O)[nH]c(N)nc21 [Valaciclovir] | 404 µM | 5.42 | 74.4 µM | –
10 | NC12CC3CC(CC(C3)C1)C2 [Amantadine] | 570 µM | 15.2 | 37.5 µM | SI (selectivity safety index = CC50/IC50) ([1]; African green monkey): 15.22
11 | Tenofovir disoproxil | – | – | – | CC50 (Vero-E6 cells): 302 µM; IC50 [1]: 67.2 µM; SI (selectivity safety index = CC50/IC50) [1]: 4.50
12 | CCN(CCO)CCCC(C)Nc1ccnc2cc(Cl)ccc12 (stereo not shown) [Hydroxychloroquine] | 296 µM | 7.41 | 39.9 µM | antiviral activity against MPXV (in words) [1]: moderate antiviral activity
13 | O=C(NN1C(=O)[C@@H]2[C@@H]3C=C[C@@H]([C@H]4C[C@@H]34)[C@@H]2C1=O)c1ccc(C(F)(F)F)cc1 [Tecovirimat] | – | – | – | survival rates [5]: enhanced the survival rates; lesion resolution time [6]: did not reduce lesion resolution time; safety in randomized clinical trials [6]: safe
14 | CCN(CC)CCCC(C)Nc1ccnc2cc(Cl)ccc12 (stereo not shown) [Chloroquine] | 253 µM | 2.47 | 102 µM | –
15 | COC[C@H]1C[C@@H](c2ncc(-c3ccc4c(c3)COc3cc5c(ccc6nc([C@@H]7CC[C@H](C)N7C(=O)[C@@H](NC(=O)OC)C(C)C)[nH]c65)cc3-4)[nH]2)N(C(=O)[C@H](NC(=O)OC)c2ccccc2)C1 [Velpatasvir] | 316 µM | 0.95 | 332 µM | –
16 | Nc1nc2c(ncn2CCC(CO)CO)c(=O)[nH]1 [Penciclovir] | 280 µM | 3.95 | 70.8 µM | IC50 ([3]; Vero C1008): 70.9 µM
17 | NC(=O)c1nc(F)c[nH]c1=O [Favipiravir] | 283 µM | 3.41 | 82.8 µM | –
18 | CCOC(=O)C1=C[C@@H](OC(CC)CC)[C@H](NC(C)=O)[C@@H](N)C1 [Oseltamivir] | 369 µM | 4.6 | 58.5 µM | CC50 (Vero-E6 cells; African green monkey): 269 µM
19 | Nc1nc2c(ncn2COCCO)c(=O)[nH]1 [Acyclovir] | 332 µM | – | – | –
20 | Cc1cn([C@H]2C[C@H](N=[N+]=[N-])[C@@H](CO)O2)c(=O)[nH]c1=O [Zidovudine] | 282 µM | 2.29 | 123 µM | antiviral activity against MPXV (in words) [1]: limited activity
21 | Nc1nc(NC2CC2)c2ncn([C@H]3C=C[C@@H](CO)C3)c2n1 [Abacavir] | 328 µM | 5.46 | 60.1 µM | –
22 | NC(=O)c1ncn([C@@H]2O[C@H](CO)[C@@H](O)[C@H]2O)n1 [Ribavirin] | 262 µM | 1.83 | 144 µM | –
23 | CC(=O)N[C@H]1[C@H]([C@H](O)[C@H](O)CO)OC(C(=O)O)=C[C@@H]1N=C(N)N [Zanamivir] | 359 µM | 1.9 | 189 µM | –
24 | COC(=O)N[C@H](C(=O)N1CCC[C@H]1c1nc(-c2ccc(-c3ccc(-c4c[nH]c([C@@H]5CCCN5C(=O)[C@@H](NC(=O)OC)C(C)C)n4)cc3)cc2)c[nH]1)C(C)C [Daclatasvir] | 386 µM | 1.99 | 194 µM | –
